Measurements as given in patent publication US20060122267A1, “Compositions and methods for attenuating mitochondria-mediated cell injury” (priority 2003, published 2006).

Tests used:
[1] = test system: isolated adult rat cardiomyocytes; test: Mitochondrial H+ leak in cardiomyocytes (respiration divided by TMRE fluorescence) after ischemia-reperfusion; assay type: cell-based; conditions: doses that protect cardiomyocyte viability
Procedure: Cardiomyocyte respiration rate was measured with an oxygen electrode, and membrane potential with the fluorescent dye TMRE (20 nM) in a fluorimeter. H^+ leak is essentially the amount of work the respiratory chain must do to maintain a given membrane potential, and experimentally is derived by dividing respiration by TMRE fluoresence. […] All data are means±SEM, N>3.
Adult rat cardiomyocytes were prepared by collagenase perfusion according to standard methods (Dai, et al. (2001) supra), yielding ˜4×10^6 cells per heart, >80% rod-shaped and viable. Incubations were in a shaking water bath at 37° C., each utilizing 5×10^5 cells in 5 mL of the KH buffers described below. For the control, cells were incubated for 2 hours in oxygenated KH buffer (95/5 O2/CO2). For ischemia-reperfusion treatment, cells were subjected to 30 minutes in oxygenated KH buffer, 1 hour in “ischemic” KH buffer (95/5 N2/CO2, pH 6.5, no glucose), and 30 minutes in oxygenated KH buffer. […] At the end of each protocol, cell viability was assayed (Trypan blue), and mitochondrial function determined (measurement of ΔΨm with the fluorescent probe TMRE, respiration with an O2 electrode, and S-nitrosothiol content by chemiluminescence and biotin-switch.

mitochondrial complex I [2] = target: T1, mitochondrial complex I (Rattus norvegicus, UniProt Q66HF1); test: Complex I S-nitrosation: blue-native gel isolation followed by chemiluminescent S-nitrosothiol analysis; assay type: biochemical; conditions: 100 μM treatment
T1 construct: Rat heart mitochondria were isolated using differential centrifugation; from tissue; host or cells: rat heart mitochondria (male Sprague-Dawley rats)
T1 sequence (Q66HF1 24-727, one chain of several): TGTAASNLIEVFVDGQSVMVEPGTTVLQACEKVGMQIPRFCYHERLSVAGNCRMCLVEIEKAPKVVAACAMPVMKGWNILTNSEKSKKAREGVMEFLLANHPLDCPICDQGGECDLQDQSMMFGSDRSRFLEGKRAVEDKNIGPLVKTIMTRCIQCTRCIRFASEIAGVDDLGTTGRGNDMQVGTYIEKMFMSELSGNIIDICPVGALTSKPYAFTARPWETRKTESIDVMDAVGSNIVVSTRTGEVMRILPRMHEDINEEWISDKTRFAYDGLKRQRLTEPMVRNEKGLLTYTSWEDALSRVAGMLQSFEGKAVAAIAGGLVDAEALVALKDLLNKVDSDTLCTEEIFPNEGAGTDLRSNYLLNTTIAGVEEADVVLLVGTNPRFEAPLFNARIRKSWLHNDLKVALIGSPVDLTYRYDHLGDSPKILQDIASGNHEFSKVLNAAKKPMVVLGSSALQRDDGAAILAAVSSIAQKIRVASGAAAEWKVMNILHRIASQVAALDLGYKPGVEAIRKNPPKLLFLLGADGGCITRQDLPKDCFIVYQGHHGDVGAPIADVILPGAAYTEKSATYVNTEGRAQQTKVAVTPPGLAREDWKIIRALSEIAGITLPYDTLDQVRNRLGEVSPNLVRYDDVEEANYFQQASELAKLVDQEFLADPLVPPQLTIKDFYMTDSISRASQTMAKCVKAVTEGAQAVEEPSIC
Text: Efforts to detect S-nitrosation within mitochondrial complex I itself relied on isolating the complex using a modified blue-native gel electrophoresis method, followed by chemiluminescent S-nitrosothiol analysis. […] Chemiluminescent analysis of excised gel bands gave an S-nitrosothiol profile of the gel, with four major peaks. The first of these was in a gel segment enriched in complex I.
Assuming heart mitochondria contain ˜50 pmol complex I per mg protein (Schagger & Pfeiffer (2001) J. Biol. Chem. 276:37861-37867), it was observed that S-nitrosation plateaud at a ˜7:1 mol/mol ratio (i.e., 7 mols S-nitrosothiol per mol complex I), while maximum complex I inhibition was ˜20-25%. This apparent mis-match between the stoichiometry of S-nitrosation (7:1) and the degree of inhibition (25%) may reflect S-nitrosation of complex I on multiple subunits. […]
(§1) Chemiluminescent analysis of S-nitrosothiol content was performed on samples originating from blue-native gels, intact mitochondria and SUPEROSE™ 6 chromatography fractions, according to known methodologies (Yang, et al. (2003) Free Radic. Res. 37:1-10). […] Each sample was run in duplicate and quantified using a standard curve created with known concentrations of NaNO2.

mitochondrial complex I [3] = target: T1, mitochondrial complex I; test: Complex I activity (rotenone-sensitive NADH/Co-Q1 oxidation/reduction) in NO donor-treated mitochondria; assay type: biochemical
Procedure: Rat heart mitochondria were isolated using differential centrifugation (Tompkins, et al. (2005) Biochim. Biophys. Acta PMID: 16278076). Protein was determined by the Folin-phenol method (Lowry, et al. (1951) J. Bio. Chem. 193:265-75) against a standard curve constructed using bovine serum albumin. Mitochondrial incubations and all subsequent steps were performed in the dark. One mg of mitochondrial protein was suspended in 1 mL of mitochondrial respiration buffer (Tompkins, et al. (2005) supra) containing respiratory substrates glutamate (5 mM), malate (2.5 mM) and succinate (5 mM). […] Samples were centrifuged (5 minutes, 14,000×g), and supernatants removed. The pellets were then resuspended in 1 mL of respiration buffer, and centrifuged again. Pellets were frozen in liquid N2 for subsequent analysis. For ONOO^− treatments, 4 μL of 25 mM ONOO^− stock (100 μM final concentration) was added the cap of the reaction tube, the cap quickly closed and the tube shaken immediately. The process was then repeated twice at 30 second intervals, for a total of 3 additions. Mitochondria were then pelleted, washed, and frozen as for S-nitrosoglutathione samples. Complex I activity was assayed as the rotenone-sensitive oxidation of NADH, at 340 nm in the presence of coenzyme Q1 (Borutaite, et al. (2000) supra). […]

rat heart mitochondria = test: Chemiluminescent NO analysis of total S-nitrosothiol in treated mitochondria; assay type: biochemical
Procedure: At concentrations above 250 μM, secondary reactions such as free S-nitrosothiol or NO2^− formation were observed.
Rat heart mitochondria were isolated using differential centrifugation (Tompkins, et al. (2005) Biochim. Biophys. Acta PMID: 16278076). Protein was determined by the Folin-phenol method (Lowry, et al. (1951) J. Bio. Chem. 193:265-75) against a standard curve constructed using bovine serum albumin. Mitochondrial incubations and all subsequent steps were performed in the dark. One mg of mitochondrial protein was suspended in 1 mL of mitochondrial respiration buffer (Tompkins, et al. (2005) supra) containing respiratory substrates glutamate (5 mM), malate (2.5 mM) and succinate (5 mM). […] Samples were centrifuged (5 minutes, 14,000×g), and supernatants removed. The pellets were then resuspended in 1 mL of respiration buffer, and centrifuged again. Pellets were frozen in liquid N2 for subsequent analysis. For ONOO^− treatments, 4 μL of 25 mM ONOO^− stock (100 μM final concentration) was added the cap of the reaction tube, the cap quickly closed and the tube shaken immediately. The process was then repeated twice at 30 second intervals, for a total of 3 additions. Mitochondria were then pelleted, washed, and frozen as for S-nitrosoglutathione samples. Complex I activity was assayed as the rotenone-sensitive oxidation of NADH, at 340 nm in the presence of coenzyme Q1 (Borutaite, et al. (2000) supra). Complex IV was assayed by monitoring the cyanide-sensitive first-order oxidation of reduced cytochrome c, at 550 nm according to established methods (Cleeter, et al. (1994) supra).
as §1

N[C@@H](CCC(=O)N[C@@H](CSN=O)C(=O)NCC(=O)O)C(=O)O [S-nitrosoglutathione]
effect on increase in mitochondrial H+ leak induced by ischemia-reperfusion [1]: prevent large increases in H^+ leak
share of total S-nitrosothiol originating from complex I (mitochondrial complex I [2]): ~20%
S-nitrosothiol originating from complex I (mitochondrial complex I [2]; per mg mitochondrial protein): 350 pmols
complex I inhibition (mitochondrial complex I [3]; S-nitrosoglutathione treatment of mitochondria, exposure to light): complex I inhibition that was reversible by exposure of mitochondria to light
maximum complex I inhibition (mitochondrial complex I [3]; dose response 10-500 μM): 20-25%
concentration above which secondary reactions (free S-nitrosothiol or NO2- formation) were observed (rat heart mitochondria): above 250 μM
total S-nitrosothiol (rat heart mitochondria; 100 μM treatment): ~1700 pmol/mg mitochondrial protein
concentration approaching saturation of total S-nitrosothiol (free plus protein-bound) (rat heart mitochondria; range 10 μM to 1 mM): ~300 µM
